59 molecules from the METLIN SMRT retention time set (Domingo-Almenara et al. 2019) can be followed below.

SMILES strings stand for the structures.

The series in a line: gradient 5% acetonitrile 3 min, to 50% in 2 min, to 85% in 15 min, held 3 min, 100 µL/min. The conditions noted are these: column: Zorbax Extend-C18 2.1 x 50 mm; eluents: water / acetonitrile, 0.1% formic acid. The essentials: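 Over 3 months, pure standards in mixtures of ~100 molecules were run by HPLC coupled to a quadrupole time-of-flight mass spectrometer in positive and negative ionization mode. The column was a Zorbax Extend-C18 (2.1 × 50 mm, 1.8 μm) at 100 μL/min, eluted with water and acetonitrile each holding 0.1% formic acid, with 40 μL dead and 900 μL dwell volumes. Retention time was determined from adduct peaks chosen by software and checked manually.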
As to `CCn1ccc2c(cc(C(=O)Nc3ccc(Br)cc3C)n2C)c1=O`, the RP-LC retention time is 832 s.

`Cc1ccc(-c2cc3c(=O)n(Cc4noc(CN5CCN(C)CC5)n4)ccn3n2)cc1`: the RP-LC retention time came to 659 s.

On to `O=C(c1cc(-c2ccncc2)n[nH]1)N1CCC(C(=O)N2CCc3ccccc32)CC1`, for which the RP-LC retention time was found to be 614 s.

`Cc1ccc(CS(=O)(=O)N2CCC(C3CCNC3)CC2)cc1` (centres undefined) registered an RP-LC retention time of 588 s.

The molecule `Cc1cccc(CNc2nnc(-c3nc(C4CC4)no3)c3ccccc23)c1` came in with an RP-LC retention time of 938 s. In the case of `CCC(=O)N1CCc2cc(-c3ccc(C(=O)N4CCN(C(=O)c5ccco5)CC4)cc3)ccc21` it was 764 s; in that of `CCc1ccc(CNC(=O)C2CCCN(c3nccnc3Oc3ccc(C)cc3)C2)cc1` (centres undefined), 1150 s. Consider `Cc1cc(C)n(-c2ccnc(N3CCC(C(=O)NC4CC4)CC3)n2)n1`, for which the RP-LC retention time came to 693 s. In the case of `CCOC(=O)c1ccccc1NC(=O)CSc1nnc2c3cc(-c4ccc(F)cc4)nn3ccn12` it was 1030 s. Take `COc1ccc(Br)c2c1-c1nc(NC(=O)c3ccccc3)sc1C2`: the RP-LC retention time turned out to be 1130 s. For `O=C(NCc1ccccc1Cl)c1c(O)c2cccc3c2n(c1=O)CC3` the value was 1180 s; for `COc1ccc(C2CN(S(=O)(=O)c3cccc(C#N)c3)CCN2C)cc1` (centres undefined), 550 s. `COc1ccc(-c2noc(CN3N=NC4C(=O)N(c5cccc(F)c5)C(=O)C43)n2)cc1OC` (centres undefined) had an RP-LC retention time of 1260 s.

The molecule `CCCN1CCN(c2cc(C(=O)O)c3cc(NS(=O)(=O)c4ccccc4)ccc3n2)CC1` displayed an RP-LC retention time of 1110 s. `COc1ccccc1-c1nc(-c2cn(Cc3cccc(F)c3)nn2)no1` had an RP-LC retention time of 936 s. As to `Cc1ccc(-n2nnnc2CN2CCN(C(=O)CSc3nnnn3C)CC2)cc1`, the RP-LC retention time was determined as 664 s. Molecule `Fc1ccc(Cc2nc3nccc(-c4ccccc4)n3n2)cc1` yielded an RP-LC retention time of 890 s. `CCC(C)NC(=O)Nc1cc2c(cc1Oc1ccccc1)n(C)c(=O)n2C` (centres undefined) showed an RP-LC retention time of 853 s. In turn, `Cc1ccc(C)c(NC(=O)C2CCN(S(=O)(=O)c3c(C)[nH]c(C)c3C(=O)N3CCCC3)CC2)c1` displayed an RP-LC retention time of 726 s.

Molecule `CCC(C)(C)c1ccc(Oc2cccc(C(=O)O)c2)cc1` had an RP-LC retention time of 1260 s. As for `CCc1nc2ccccc2c(=O)n1Cc1noc(-c2ccccc2OC)n1`, the RP-LC retention time came out at 919 s. For the molecule `Cc1cc(C)c(-c2noc(C)n2)c(NC(=O)C2CCCCC2)n1`, the RP-LC retention time is 723 s. In the case of `Cc1cccc(NC(=O)N2CCCC2c2nc(-c3ccc(F)cc3F)no2)c1C` (centres undefined) it was 981 s. In the case of `CCc1nc2cccnc2n1CCN1CCN(C(=O)Nc2ccccc2Cl)CC1`, the RP-LC retention time was found to be 583 s. `Cn1c(=O)c2nc(S(=O)(=O)CCC(=O)Nc3ccc(Cl)cc3F)n(C)c2n(C)c1=O`: the RP-LC retention time stood at 781 s. `Cc1ccc(S(=O)(=O)NCC(c2cccnc2)c2cn(C)c3ccccc23)cc1C` (centres undefined): the RP-LC retention time stood at 790 s. As for `CCN1CCN(C(=O)Nc2cccc(C(=O)OC)c2)c2cccnc21`, the RP-LC retention time stood at 612 s. `CCc1nc(-c2ccc(-c3noc(CNS(=O)(=O)c4ccccc4)n3)cc2)cs1` returned an RP-LC retention time of 1020 s. As for `Cc1ccc(C)c(NC(=O)N2CCC3(CC2)NC(=O)c2ccccc2O3)c1`, the RP-LC retention time worked out at 766 s. `Cc1cc(C(=O)Nc2cccc(-c3ccc(N4CCOCC4)nn3)c2)c(C)o1` registered an RP-LC retention time of 638 s. For the molecule `CSc1cccc2sc(N(Cc3ccco3)C(=O)c3ccc(C#N)cc3)nc12`, the RP-LC retention time turned out to be 1110 s. In turn, `O=C(Cn1c(=O)c(=O)n(Cc2ccncc2)c2ncccc21)NCCc1ccc(Cl)cc1` came in with an RP-LC retention time of 633 s. Take `Cc1ccc(-c2nc(N)n(C(=O)C(C)(C)C)n2)cc1`: the RP-LC retention time was 1080 s. For `O=C(Nc1ccc(F)cc1F)Nc1c(-c2ccc(F)cc2)nc2ccccn12`, the RP-LC retention time came to 677 s. Turning to `O=C(NCc1ccc2c(c1)OCO2)C(=O)NCC1(CO)CC1`, the RP-LC retention time worked out at 627 s.

`CC1CN(c2ccc(Cl)cc2)c2nc3c(c(=O)n(CCN4CCOCC4)c(=O)n3C)n2C1` (centres undefined) showed an RP-LC retention time of 686 s. Take `CCN1C(=O)Cc2ccccc2C1C(=O)NCc1ccccc1Br` (centres undefined): the RP-LC retention time came to 780 s. `Cc1cc2n(n1)CCC(=O)N2CCCC(=O)NCCCN1CCc2ccccc2C1` had an RP-LC retention time of 580 s. Regarding `O=S(=O)(c1cccc2cccnc12)N1CC[C@@H]2COCCN(Cc3cccnc3)[C@@H]2C1`, the RP-LC retention time stood at 600 s. On to `Cc1oc(C2CCN(C(=O)Nc3ccc4c(c3)CCC4)CC2)nc1C(=O)N1CCCC1`, for which the RP-LC retention time worked out at 861 s. For `Cc1cc(C)cc(NS(=O)(=O)c2cc(-c3cc(C(F)(F)F)on3)sc2C)c1` the value was 1230 s; for `CC(C)CCNC(=O)C1CCCN(c2ccnc(-c3ccc(F)cc3)n2)C1` (centres undefined), 690 s. Turning to `Clc1cccc(-c2nc(-c3cccc(-c4ccn[nH]4)c3)no2)c1`, the RP-LC retention time is 1120 s. In the case of `Cc1ccc(C)c(CS(=O)(=O)N2CCc3nc(-c4ccc(Cl)cc4)ncc3C2)c1`, the RP-LC retention time is 1290 s. Molecule `Cc1cccc(-c2noc(-c3nn(-c4ccccc4)ccc3=O)n2)c1` displayed an RP-LC retention time of 898 s. In the case of `Cc1ccc(C)c(NC(=O)CN2C(=O)C3CCCCN3c3ccc(S(=O)(=O)N(C)C)cc32)c1` (centres undefined) it was 955 s. As to `COCCCNC(=O)Cc1cn(C)c2ncccc12`, the RP-LC retention time was 576 s. Molecule `CCCc1noc(-c2cccnc2N2CCCN(C(=O)Nc3cc(C)ccc3C)CC2)n1` had an RP-LC retention time of 995 s. For `O=C(c1ccc(F)cc1F)N1CCN(c2cc(-c3cccs3)[nH]n2)CC1` the value was 784 s.

Turning to `Cn1cc(-c2cc3n(n2)CCCN3C(=O)CCC(=O)NCc2ccco2)c2ccccc21`, the RP-LC retention time was 754 s. In the case of `Cc1cn(C)nc1C(=O)Nc1nc2ccc(S(C)(=O)=O)cc2s1` it was 699 s; in that of `CCOc1ccc(NC(=O)CSc2ccc(N3CCCC(C(=O)NC4CC4)C3)nn2)cc1` (centres undefined), 652 s; in that of `COc1ccc(-c2nc(C3CC(=O)N(c4ccc(Cl)cc4)C3)no2)cc1F` (centres undefined), 1030 s.

Turning to `O=C(CN1C(=O)COc2ccc(C(=O)N3CCCC3)cc21)NCc1ccc(Cl)cc1`, the RP-LC retention time came to 745 s. As for `CN1c2ccc(Cl)cc2C(=O)NC12CCN(C(=O)NC1CCCCC1)CC2`, the RP-LC retention time was determined as 818 s. The molecule `Cc1ccc(CNC(=O)C2CCCN(c3nnc4ccc(Cl)cn34)C2)o1` (centres undefined) had an RP-LC retention time of 740 s.

Molecule `COc1cccc(-c2nc(-c3cn(-c4cccc(Cl)c4)nn3)no2)c1` registered an RP-LC retention time of 1140 s. As to `Cc1nc2c(n1C)CN(C(=O)Cc1ccc(F)cc1)CC2`, the RP-LC retention time came to 582 s. Molecule `COc1ccc2nc(SCC(=O)N3CCC(C(N)=O)CC3)nc(C)c2c1` gave an RP-LC retention time of 626 s.
